Assay results reported in patent EP3030673B1, “SCREENING AND IDENTIFICATION OF RESISTANT MARKERS IN CRUSTACEAN” (priority 2013, dated 2015).
Where two headings read alike, the source gives them in different places.

System: LsHybridG (LsGulen as its maternal strain)
Assay type: in vivo, Lepeophtheirus salmonis
Description: In order to hybridise the lice strains for the inheritance experiment, the parental strains were first synchronised and multiplied up in numbers by simultaneously infecting 20 Atlantic salmon with copepods. In total, 1000 copepods per strain were added. At 32 days post infection (dpi), all salmon were anaesthetised and approximately half of the lice were carefully removed using tweezers. At this stage, lice were predominantly preadult 2 females and adult males, with a few percent adult females and preadult 2 males. The lice removed from the salmon were sexed, and then used to create the reciprocal hybrid strains. This was achieved by combining 4-5 females from the resistant strain and 4-5 males from the sensitive strain (LsHybridV), and 4-5 females from the sensitive strain and 4-5 males from the resistant strain (LsHybridG). Only preadult 2 females were used. These combinations were each placed into 2 replicate tanks in order to make two hybrid strains (4 groups and 8 tanks at this stage). At 67-68 dpi, all lice were removed from the four strains. Egg strings were removed from adult females and incubated in containers containing a single strain each. The number of adult lice, and harvested egg strings varied, but all were incubated (Table 2). Table 2. Number of egg strings collected from each strain. Egg strings from replicate tanks were pooled. Most egg strings were part of a pair.
The subsequent generation (F2, Fig. 2) were both produced using the general procedure described above, although the hybrid strains were only crossed back to themselves to create multiple generation-hybrids. Collection of egg strings, which marked the establishment of a new generation, was done at 55 and 56 dpi respectively. Salmon that hosted the previous generation were re-used for reinfection with the next generation, but hosted only the same experimental strain.
Each strain, including both types of hybrids obtained in example 1 were quantified in their tolerance of deltamethrin at sampling points 1 and 2 representing the F1 and F2 generations for the hybrids (Fig. 1 and 2). Bioassays were performed according to standard guidelines (SEARCH Consortium, 2006, Sea lice resistance to chemotherapeutants: A handbook in resistance management. 2 ed.), with minor modifications. Only adult male lice were used for the bioassay, which after sampling (at 55 or 56 dpi) had been incubated overnight in running seawater (ca. 10 °C). The 30 min exposure to the prepared deltamethrin concentration was also carried out at ca. 10 °C, and higher concentrations than those described in the given protocol were included (Table S3). After exposure to deltamethrin, the lice were kept in running seawater (24 h at ca. 10 °C) until evaluation of the bioassays. […] EC50 values were calculated using probit analysis (PoloPlus 2.0; LeOra Software, CA, USA). Table 3a. Deltamethrin bioassays performed on sampling set 1

In the case of `CC1(C)[C@H](C(=O)O[C@H](C#N)c2cccc(Oc3ccccc3)c2)[C@@H]1C=C(Br)Br` [Deltamethrin, deltamethrin], the mortality (above 1 ppb, maternal hybrid strain of the sensitive strain) is reported as 100%, the “% Inactive” value (sampling set 1, F1, fish tank 01, dose 0.1 ppb) is reported as 0% and the “% Inactive” value (sampling set 1, F1, fish tank 01, dose 0.3 ppb) is reported as 21%. For the same molecule, the “% Inactive” value (sampling set 1, F1, fish tank 01, dose 1 ppb) was 100%, the “% Inactive” value (sampling set 1, F1, fish tank 01, dose 3 ppb) was 100% and the “% Inactive” value (sampling set 1, F1, fish tank 01, dose 6 ppb) was 100%. The “% Inactive” value (sampling set 1, F1, fish tank 01, dose 12 ppb) was 100%, the “% Inactive” value (sampling set 1, F1, fish tank 07, dose 0.1 ppb) was 18% and the “% Inactive” value (sampling set 1, F1, fish tank 07, dose 0.3 ppb) was 32%. The “% Inactive” value (sampling set 1, F1, fish tank 07, dose 1 ppb) was 100%, the “% Inactive” value (sampling set 1, F1, fish tank 07, dose 3 ppb) was 100% and the “% Inactive” value (sampling set 1, F1, fish tank 07, dose 6 ppb) was 100%. For the same molecule, the “% Inactive” value (sampling set 1, F1, fish tank 07, dose 12 ppb) was 100%, the “% Inactive” value (sampling set 2, F2, fish tank 07, dose 0.1 ppb) was 0% and the “% Inactive” value (sampling set 2, F2, fish tank 07, dose 0.3 ppb) was 50%. For the same molecule, the “% Inactive” value (sampling set 2, F2, fish tank 07, dose 0.5 ppb) was 85%, the “% Inactive” value (sampling set 2, F2, fish tank 07, dose 1 ppb) was 90% and the “% Inactive” value (sampling set 2, F2, fish tank 07, dose 3 ppb) was 100%. The “% Inactive” value (sampling set 2, F2, fish tank 07, dose 6 ppb) was 100%, the “% Inactive” value (sampling set 2, F2, fish tank 07, dose 12 ppb) was 100% and the “% Inactive” value (sampling set 2, F2, fish tank 07, dose 20 ppb) was 100%. For the same molecule, the “% Inactive” value (sampling set 2, F2, fish tank 10, dose 0.1 ppb) was 5%, the “% Inactive” value (sampling set 2, F2, fish tank 10, dose 0.3 ppb) was 43% and the “% Inactive” value (sampling set 2, F2, fish tank 10, dose 0.5 ppb) was 72%. The “% Inactive” value (sampling set 2, F2, fish tank 10, dose 1 ppb) was 100%, the “% Inactive” value (sampling set 2, F2, fish tank 10, dose 3 ppb) was 100% and the “% Inactive” value (sampling set 2, F2, fish tank 10, dose 6 ppb) was 100%. For the same molecule, the “% Inactive” value (sampling set 2, F2, fish tank 10, dose 12 ppb) was 100% and the “% Inactive” value (sampling set 2, F2, fish tank 10, dose 20 ppb) was 100%.
